Test results reported in PubChem BioAssay AID179 (DTP/NCI, 2004).
pEC50, pIC50: −log10 of the molar value. Values joined by “and” are separate entries in the source; they are usually repeats but may differ in a detail not shown here. Equal values may be shown once. Active and inactive are the calls of the source.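 How the source made its calls: active means compounds giving half or more protection of infected cells from virus-caused growth loss, again on retest; inactive means the rest.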

Tested on: CEM cells HIV-1 protection, formazan growth assay
Assay: NCI AIDS Antiviral Assay
Details: for pIC50: measured here: growth of uninfected CEM cells
Summary of the method: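 CEM (human) cells, HIV-1 infected vs uninfected, 5-point dosing, formazan growth read-out. Retest threshold 50% protection.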

| Compound | pEC50 | pIC50 | outcome |
| --- | --- | --- | --- |
| CCCOC(=O)CCC(NC(=O)c1ccc(Nc2nc3ccccc3nc2-c2cccs2)cc1)C(=O)OCCC (stereo unspecified) | < 5.31 | < 5.31 | – |
| CN(C)C1=c2c(=O)n(C)c(=O)n(C)c2=NC2C=CC=CN12 (stereo unspecified) | < 3.76 | < 3.76 | – |
| CC(=O)NC(CC(C)C)C(=O)NC(Cc1ccccc1)C(=S)N1CCCC1 (stereo unspecified) | < 3.76 | < 3.76 | – |
| C1=NCCNc2nc3ccccc3cc2C=NCCNc2nc3ccccc3cc21 | < 3.70 | < 3.70 | – |
| CC1CCCC2(O1)OC1CC(=O)OC1C1=C2C(=O)c2ccccc2C1=O (stereo unspecified) | < 4.06 | 6.38 | – |
| Clc1ccc(Nc2nn3c(CCCCCCCCc4nnc5sc(Nc6ccc(Cl)cc6)nn45)nnc3s2)cc1 | < 3.70 | 3.95 | – |
| COCn1cnc2c(=O)nc(SC)n(-c3ccccc3)c21 | < 3.70 | < 3.70 | – |
| FC(F)(F)c1cc(NC2=NCCN=C(Nc3cc(C(F)(F)F)cc(C(F)(F)F)c3)SS2)cc(C(F)(F)F)c1 | < 3.70 | 5.50 | – |
| CCOC(=O)c1c(C)nn2c1ccc1ccccc12 | < 3.70 | 3.96 | – |
| CCN(C(=O)N[C@@H](Cc1ccccc1)C(=O)N[C@@H](CC(C)C)C(=O)NC)c1ccccc1 | < 3.70 | 3.71 | – |
| O=c1cc2oc3cc(O)c(O)cc3c(-c3ccccc3O)c-2cc1O | < 3.70 | 3.94 | – |
| Cc1ncc([N+](=O)[O-])n1CCNC(=O)CCn1ccnc1[N+](=O)[O-] | < 3.70 | < 3.70 | – |
| O=C(CSCc1cc(S(=O)(=O)O)c2cccnc2c1O)Nc1ccc(/C=C/c2ccc(NC(=O)CSCc3cc(S(=O)(=O)O)c4cccnc4c3O)cc2S(=O)(=O)O)c(S(=O)(=O)O)c1 | < 3.70 | < 3.70 | – |
| CC1=NN(c2nc(N)nc(C(C)Sc3cc(Cl)c(C)cc3S(N)(=O)=O)n2)C(C)(C)C1 (stereo unspecified) | < 3.70 | 4.37 | – |
| CCN1C(=O)C(C)C=C(C)C=C1C (stereo unspecified) | < 3.14 | < 3.14 | – |
| O=C(O)c1ccc(S(=O)(=O)O)o1 | < 3.70 | < 3.70 | – |
| O=c1[nH]c(=O)n(C2OC(CO)C(O)C2O)c2ncc(-c3ccc(-c4ccccc4)cc3)nc12 (stereo unspecified) | < 4.70 | < 4.70 | – |
| Cc1nc(N)c(-c2ccccc2)s1 | < 3.87 | < 3.87 | – |
| COc1ccc(/C=C/C(=O)CCN2CCN(CCC(=O)/C=C/c3ccc(OC)cc3)CC2)cc1 | < 3.82 | 5.80 | – |
| O=[N+]([O-])c1ccccc1OCCOc1ccccc1[N+](=O)[O-] | < 3.70 | < 3.70 | – |
| Cc1c(/C=N/NC(=S)Nc2ccc([N+](=O)[O-])cc2)c(=O)n(-c2ccccc2)n1C | < 3.70 | 3.78 | – |
| NS(=O)(=O)c1cc2c(cc1Cl)NCNS2(=O)=O | < 3.08 | 3.36 | – |

| Compound | pEC50 | pIC50 | outcome |
| --- | --- | --- | --- |
| CCOC(=O)C1=C(C)N2CCCOC2(C)C(C(=O)OC)C1c1cccc([N+](=O)[O-])c1 (stereo unspecified) | < 3.70 | 4.16 | – |
| O=C(O)C1Cc2c([nH]c3ccccc23)C=N1 (stereo unspecified) | – | – | inactive |
| N#C/C(=C\c1ccc[nH]1)C(=O)c1ccccc1 | < 3.51 | < 3.51 | – |
| COc1cc2c(c(OC)c1OC)CCc1cnoc1-2 | < 3.59 | < 4.00 | – |
| O=C(c1ccc(Cl)cc1)c1cc2c([nH]c1=O)CCCCC2 | – | – | inactive |
| CC1=C(C)C(=O)c2c(cc3ccccn23)C1=O | – | – | inactive |
| [O]=[W](=[O])([OH])[OH] | – | – | inactive |
| Cc1c(C2Cc3ccccc3N2)c2ccccc2n1C (stereo unspecified) | < 3.22 | 3.71 | – |
| CN1C(=O)c2ccccc2OC12C=Cc1c(ccc3ccccc13)O2 (stereo unspecified) | < 3.71 | 4.85 | – |
| COc1cc(N=Nc2ccccc2C(=O)[O-])cc(/C=N/NC(=S)Nc2ccc(C)cc2)c1[O-].[Cu+].[Cu+] | – | – | inactive |
| CCOP(=O)(/C=C(\Cl)c1ccccc1)OCC | < 3.89 | < 3.89 | – |
| CC(C)=CC1CC(n2cc(C)c(=O)[nH]c2=O)ON1CCO[Si](C)(C)C(C)(C)C (stereo unspecified) | – | – | inactive |
| COc1cc2c(c(OC)c1OC)C(=O)CC2N (stereo unspecified) | < 3.70 | < 3.70 | – |
| CCc1ccc(N=Cc2cc(OC)c(OC)c(OC)c2)cc1 | < 4.48 | < 4.48 | – |
| C1CC[N-]CC1.Oc1ccccc1C=NCCN=Cc1ccccc1O.[Co] | < 3.70 | 4.81 | – |
| CC1(C)CC(=O)C2=C(C1)S/C(=C1/SC3=C(S1)C(=O)CC(C)(C)C3)S2 | < 5.16 | < 5.16 | – |
| COc1cc(/C=C2\NC(=O)N(/C=C3\C(=O)Oc4ccccc4C3=O)C2=O)ccc1O | < 3.70 | < 3.70 | – |
| Cc1ccc2c(c1)C(=O)CC1CC(=O)c3ccccc3C21 (stereo unspecified) | < 3.70 | < 3.70 | – |
| O=C1C(c2ccc(Cl)cc2)=[N+]([O-])c2ccccc21 | – | – | inactive |
| COC(c1ccsc1)C(C#N)(C#N)N=Cc1ccsc1 (stereo unspecified) | < 3.70 | 4.79 | – |
| N#CC(C(=S)Nc1ccccc1)=C1Nc2ccccc2N1 | < 3.70 | < 3.70 | – |
| O=C(CCCC[n+]1ccccc1)Sc1ccccc1C(=O)Nc1ccc(S(=O)(=O)Nc2ccnn2-c2ccccc2)cc1 | 5.21 | 4.45 | – |

| Compound | pEC50 | pIC50 | outcome |
| --- | --- | --- | --- |
| COc1cc(CC(C(=O)O)C(=O)O)c(OC)cc1CC(C(=O)O)C(=O)O | – | – | inactive |
| CCOC(=O)c1sc2nc(SC)nc3c2c1NCN3c1ccccc1Cl | < 3.70 | < 3.70 | – |
| Sc1ccccc1-n1c(-c2ccccc2)ccc1-c1ccccc1 | < 3.70 | 3.82 and 3.81 | – |
| O=[N+]([O-])c1ccc(NS(=O)(=O)C(F)(F)F)cc1 | < 3.70 | < 3.70 | – |
| CCOc1ccc(Nc2ccc(N=Nc3c(N)c(C)cc(N=Nc4ccc(-c5ccc(N=Nc6ccc(O)c(C(=O)O)c6)cc5)cc4)c3N)cc2S(=O)(=O)O)cc1 | 4.97 | 4.10 | – |
| COC(=O)c1cc(C(=O)OC)c(CC(=O)C(=O)Nc2c(C(C)C)cccc2C(C)C)nc1CC(=O)C(=O)Nc1c(C(C)C)cccc1C(C)C | < 3.70 | < 3.70 | – |
| CCCCOP(=O)(/N=C/OC(C)C)OCCCC | < 3.70 | < 3.70 | – |
| COc1ccc(-c2cc(=O)c3c(OC)c(O)c(OC)cc3o2)cc1 | < 3.70 | 4.41 | – |
| CCCC(=O)NC(Nc1ccc(S(=O)(=O)Nc2nc(C)cc(C)n2)cc1)(C(F)(F)F)C(F)(F)F | < 3.70 | < 3.70 | – |
| Clc1cccc(Cl)c1C=NC12CC3CC(CC(C3)C1)C2 | < 3.70 | < 3.70 | – |
| CCOC(=O)c1[nH]n(-c2ccccc2)c(=O)c1C=NC(C)=S | < 3.70 | < 4.00 | – |
| Cc1nc2c(=S)[nH]ncc2[nH]1 | < 3.70 | < 3.70 | – |
| CC1(C)CN(C(=O)OCc2ccccc2)[C@@H]2N1C(=O)[C@@]2(C)OCCCO[C@@]1(C)C(=O)N2[C@@H]1N(C(=O)OCc1ccccc1)CC2(C)C | < 3.70 | 4.57 | – |
| CC(C)CCCC(C)[C@H]1CC[C@H]2[C@@H]3CC[C@H]4C[C@@H](CCC=C(c5cc(Cl)c(O)c(C(=O)OC(C)(C)C)c5)c5cc(Cl)c(O)c(C(=O)OC(C)(C)C)c5)CC[C@]4(C)[C@H]3CC[C@]12C (stereo partly specified) | < 4.30 | < 4.30 | – |
| COc1ccc(C2=Nc3ccccc3SC(c3ccc(OC)cc3)C2)cc1 (stereo unspecified) | < 4.32 | 4.59 | – |
| CC(C)(C)c1cc(C2c3cc4c(cc3OC(O)(CO)C2C(=O)O)OCO4)cc(C(C)(C)C)c1O (stereo unspecified) (tested in a mixture with another compound) | – | – | inactive |
| Cc1cccc(N(CC(=O)O)S(=O)(=O)c2ccccc2)c1 | – | – | inactive |
| CC(=O)NS(=O)(=O)c1ccc(-n2sc3ccccc3c2=O)cc1 | 4.91 | 4.51 | – |
| CC(C)OP(=O)(OC(C)C)C1=NN(c2ccc([N+](=O)[O-])cc2)C(P(=O)(OC(C)C)OC(C)C)=NN1c1ccc([N+](=O)[O-])cc1 | < 5.66 | < 5.66 | – |
| Cc1ccccc1NC(=O)/C(C#N)=N\Nc1nc[nH]c1C(N)=O | < 3.70 | 6.59 | – |
| O=[N+]([O-])c1ccc(Cl)cc1N/N=C/c1cccs1 | < 3.70 | < 4.00 | – |
| O=c1oc(-c2ccccc2NS(=O)(=O)c2ccccc2)nc2cc(Cl)ccc12 | < 3.70 | 5.84 | – |

| Compound | pEC50 | pIC50 | outcome |
| --- | --- | --- | --- |
| Nc1ncnc2c1ncn2CC(O)C(=O)O (stereo unspecified) | – | – | inactive |
| CCOC(=O)c1cc2c(C(=O)c3ccc([N+](=O)[O-])cc3)c(C(C)=O)ccc2[nH]1 | < 3.70 | 3.76 | – |
| Cc1cc(Cl)ccc1N1C(=O)C(=O)C(c2nc3ccccc3s2)C(=O)C1=O | < 4.04 | < 4.04 | – |
| COC(=O)/C(=N/NC(C)(C)C)C(C(=O)C=C(C)C)C(=O)C(=O)Nc1ccc(Cl)cc1C (stereo unspecified) | < 3.40 | 3.57 | – |
| O=C1NC2c3c(I)sc(I)c3/C(=N\O)C2O1 (stereo unspecified) | < 3.70 | 4.79 | – |
| CN/N=C(\C(=O)Nc1ccc([N+](=O)[O-])cc1[N+](=O)[O-])C1NC(=O)NC1=O (stereo unspecified) | < 4.18 | < 4.18 | – |
| O=C(O)c1cc2ccccc2c(=O)s1 | < 3.48 | < 3.48 | – |
| CC1(C)C2CCC13CS(=O)(=O)N=C3C2 (stereo unspecified) | – | – | inactive |
| COc1ccc(-c2c(C)oc(=O)c(NC(=O)c3ccccc3)c2C)cc1 | < 3.70 | 4.24 | – |
| Cc1cc(=O)oc2c3c4c(cc12)CCCN4CCC3 | < 4.83 | < 4.83 | – |
| Cn1c(N)c(N=O)c(=O)n(C)c1=O | < 3.70 | < 3.70 | – |
| CSc1nc2c(c(N(C)C)n1)C=Nn1c(nc3ccccc31)S2 | 5.01 | 4.01 | – |
| c1csc(-c2nnc(C34CC5CC(CC(C5)C3)C4)o2)c1 | < 3.70 | 4.30 | – |
| CC(=O)Nc1cc2cc(NS(=O)(=O)c3cc(C(F)(F)F)cc(C(F)(F)F)c3)ccc2oc1=O | < 4.56 | < 4.56 | – |
| O=C1N[C@H]2[C@H](O)[C@H](O)[C@@H](O)[C@H](O)[C@@H]2c2cc3c(c(O)c21)OCO3 | – | – | inactive |
| COc1ccc(C2c3ccccc3C3(O)CC2CC(=O)O3)cc1 (stereo unspecified) | < 3.70 | < 4.00 | – |
| O=c1oc2ccccc2c(O)c1[N+](=O)[O-] | < 3.70 | < 3.70 | – |
| Nc1ccc(C2=N/C(=C\c3cccc(N)c3)C(=O)O2)cc1 | – | – | inactive |
| O=C(O)C(CP(=O)(O)O)=C(Cl)Cl | < 3.13 | < 3.13 | – |
